# Test results as given in patent publication US20080194585A1, “Fungicidal Pyrazine Derivatives” (priority 2005, published 2008).
# Marks after values point to notes of the source that are not given here.
# Experiments:
# Septoria tritici = test: Test J: wheat leaf blotch, preventive spray on wheat seedlings; type: in vivo; details: for Test J disease control rating: 100 = 100% disease control
# From the text: A dash (-) indicates no test results.
# Septoria nodorum = test: Test H: wheat glum blotch, preventive spray on wheat seedlings; details: for Test H disease control rating: 100 = 100% disease control
# Protocol: (the causal agent of wheat glum blotch) and incubated in a saturated atmosphere at 20° C. for 48 h, and then moved to a growth chamber at 22° C. for 5 days, after which disease ratings were made.
# Botrytis cinerea = test: Test E: tomato botrytis, preventive spray on tomato seedlings; details: for Test E disease control rating: 100 = 100% disease control
# Sclerotinia sclerotiorum = test: Test C: cucumber white mold, preventive spray on cucumber seedlings; details: Sclerotinia sclerotiorum, in Cucumis sativus, 168 h, read-out: Test C disease control rating, 200 ppm
# [1] = tested on: Colletotrichum orbiculare; test: Test B: cucumber Colletotrichum anthracnose, preventive spray on cucumber seedlings; details: for Test B disease control rating: 100 = 100% disease control
# Plasmopara viticola = test: Test D: grape downy mildew, spray after inoculation of grape seedlings; type: in vivo; details: for Test D disease control rating: 100 = 100% disease control
# From the text: Upon removal, disease ratings were made. […] A dash (-) indicates no test results.
# [2] = tested on: Erysiphe graminis f. sp. tritici; test: Test L: wheat powdery mildew, preventive spray on wheat seedlings; details: for Test L disease control rating: 100 = 100% disease control
# Phytophthora infestans = test: whole plant or invertebrate; type: in vivo; details: for Test F disease control rating: 100 = 100% disease control
# [3] = tested on: Puccinia recondita f. sp. tritici; test: Test K: wheat leaf rust, preventive spray on wheat seedlings; details: for Test K disease control rating: 100 = 100% disease control
# Rhizoctonia oryzae = test: Test G: turf brown patch, preventive spray on creeping bent grass seedlings; details: for Test G disease control rating: 100 = 100% disease control
# Protocol: (the causal agent of turf brown patch) and incubated in a saturated atmosphere at 27° C. for 24 h, and then moved to a growth chamber at 27° C. for 5 days, after which disease ratings were made.
# Pythium aphanidermatum = test: Test A: bluegrass pythium blight, preventive spray on bluegrass seedlings; details: for Test A disease control rating: 100 = 100% disease control
# fusarium graminearium = test: Test I: wheat head scab, preventive spray on wheat seedlings; details: 100 = 100% disease control
# Protocol: (the causal agent of wheat head scab) and incubated in a saturated atmosphere at 20° C. for 72 h, and then moved to a growth chamber at 22° C. for 5 days, after which disease ratings were made.
# [4] = 40 ppm (marked *), 0 = no control
# [5] = 200 ppm, 0 = no control relative to controls
SMILES,Test J disease control rating (Septoria tritici; [4]),Test H disease control rating (Septoria nodorum; [4]),Test E disease control rating (Botrytis cinerea; [4]),"Test B disease control rating [1, 4]",Test D disease control rating (Plasmopara viticola; [4]),"Test L disease control rating [2, 4]",Test F disease control rating (Phytophthora infestans; [4]),Test I disease control rating (fusarium graminearium; [4]),"Test K disease control rating [3, 4]",Test G disease control rating (Rhizoctonia oryzae; [4]),Test A disease control rating (Pythium aphanidermatum; [4]),Test G disease control rating (Rhizoctonia oryzae; [5]),Test J disease control rating (Septoria tritici; [5]),Test D disease control rating (Plasmopara viticola; [5]),"Test L disease control rating [2, 5]",Test F disease control rating (Phytophthora infestans; [5]),Test I disease control rating (fusarium graminearium; [5]),Test A disease control rating (Pythium aphanidermatum; [5]),Test H disease control rating (Septoria nodorum; [5]),Test E disease control rating (Botrytis cinerea; [5]),further results
"Cc1ccc(-c2nc(Cl)c(-c3c(F)cccc3F)n(CC(C)C)c2=O)nc1 [Compound 209, 5-Chloro-6-(2,6-difluorophenyl)-1-(2-methylpropyl)-3-(5-methyl-2-pyridinyl)-2(1H)-pyrazinone]",,,,,,,,,,,,,,,,,,,,,"pest or weed control at 200 ppm (Septoria tritici; Zymoseptoria tritici, 528 h, 200 ppm, read-out: Test J disease control rating): 96%; pest or weed control at 200 ppm (Septoria nodorum; Parastagonospora nodorum, in Triticum aestivum, topical, 168 h, read-out: Test H disease control rating, 200 ppm): 0%; pest or weed control at 200 ppm (Botrytis cinerea; Botrytis cinerea, in Solanum lycopersicum, topical, 72 h, read-out: Test E disease control rating): 99%; pest or weed control at 200 ppm (Sclerotinia sclerotiorum): 0%; pest or weed control at 200 ppm ([1]; Colletotrichum orbiculare, in Cucumis sativus, 144 h, read-out: Test B disease control rating, 200 ppm): 54%; pest or weed control at 200 ppm (Plasmopara viticola; Plasmopara viticola, 168 h, 200 ppm, read-out: Test D disease control rating): 8%; pest or weed control at 200 ppm ([2]; Blumeria graminis, in Triticum aestivum, 168 h, read-out: Test L disease control rating, 200 ppm): 0%; pest or weed control at 200 ppm (Phytophthora infestans; Phytophthora infestans, in Solanum lycopersicum, topical, 144 h, read-out: Test F disease control rating): 0%; pest or weed control at 200 ppm ([3]; Puccinia recondita, in Triticum aestivum, 192 h, read-out: Test K disease control rating): 85%; pest or weed control at 200 ppm (Rhizoctonia oryzae; Waitea circinata, in Agrostis stolonifera, topical, 144 h, read-out: Test G disease control rating, 200 ppm): 34%; pest or weed control at 200 ppm (Pythium aphanidermatum; Pythium aphanidermatum, 120 h, read-out: Test A disease control rating): 56%"
Cc1ccn(-c2nc(Cl)c(-c3c(F)cccc3F)n(-c3cccc(F)c3F)c2=O)n1 [compound 381],100* %,99* %,100* %,78* %,0* %,76* %,0* %,0* %,100* %,16* %,0* %,,,,,,,,,,
O=c1c(-n2cccn2)nc(Cl)c(-c2c(F)cccc2F)n1-c1ccc(F)cc1 [compound 382],100* %,99* %,99* %,63* %,0* %,50* %,0* %,0* %,100* %,,0* %,16%,,,,,,,,,
Cc1ccn(-c2nc(Cl)c(-c3c(F)cccc3F)n(-c3ccc(F)cc3)c2=O)n1 [compound 383],100* %,100* %,99* %,63* %,0* %,99* %,0* %,0* %,100* %,49* %,0* %,,,,,,,,,,
O=c1c(-n2cccn2)nc(Cl)c(-c2c(F)cccc2F)n1-c1cc(F)cc(F)c1 [compound 384],98* %,99* %,99* %,90* %,15* %,59* %,0* %,0* %,100* %,47* %,0* %,,,,,,,,,,
Cc1ccn(-c2nc(Cl)c(-c3c(F)cccc3F)n(-c3cc(F)cc(F)c3)c2=O)n1 [compound 385],100* %,99* %,99* %,99* %,0* %,89* %,0* %,0* %,100* %,78* %,0* %,,,,,,,,,,
O=c1c(-n2cccn2)nc(Cl)c(-c2c(F)cccc2F)n1-c1ccc(F)cc1F [compound 386],96* %,100* %,99* %,87* %,57* %,68* %,0* %,0* %,100* %,99* %,0* %,,,,,,,,,,
Cc1ccn(-c2nc(Cl)c(-c3c(F)cccc3F)n(-c3ccc(F)cc3F)c2=O)n1 [compound 387],99* %,89* %,99* %,0* %,0* %,0* %,0* %,0* %,100* %,60* %,0* %,,,,,,,,,,
CC(C)Cn1c(-c2c(Cl)cc(C(F)(F)F)cc2Cl)c(Cl)nc(-n2cccn2)c1=O [compound 391],33* %,0* %,0* %,0* %,0* %,0* %,0* %,0* %,88* %,0* %,0* %,,,,,,,,,,
CCC(C)Cn1c(-c2c(F)cc(F)cc2F)c(Cl)nc(C(=O)NOC)c1=O (centres unmarked) [compound 417],,60* %,99* %,71* %,,,,,100* %,0* %,,,0%,86%,76%,93%,0%,0%,,,
CC(=O)Nc1nc(Cl)c(-c2c(F)cccc2F)n(CC(C)C)c1=O [compound 423],46* %,,,,,,,,,,,95%,,0%,97%,0%,60%,0%,0%,100%,"Test B disease control rating [1, 5]: 0%; Test K disease control rating [3, 5]: 97%"
Cc1nc(C#N)c(=N)n(CC(C)C)c1-c1ccc(F)cc1F [compound 425],,,,,,,,,,,,0%,3%,0%,0%,16%,0%,0%,0%,0%,"Test B disease control rating [1, 5]: 0%; Test K disease control rating [3, 5]: 0%"
Cc1nc(C(N)=O)c(=N)n(CC(C)C)c1-c1ccc(F)cc1F [compound 427],,,,,,,,,,,,0%,0%,0%,0%,0%,0%,0%,0%,0%,"Test B disease control rating [1, 5]: 0%; Test K disease control rating [3, 5]: 0%"
CCC(C)Cn1c(-c2ccc(F)cc2F)c(C)nc(C(N)=O)c1=N (centres unmarked) [compound 428],,,,,,,,,,,,0%,87%,0%,0%,0%,0%,0%,0%,49%,"Test B disease control rating [1, 5]: 0%; Test K disease control rating [3, 5]: 95%"
CC(C)Cn1c(-c2ccc(F)cc2F)c(F)nc(C(N)=O)c1=N [compound 429],,,,,,,,,,,,0%,0%,0%,0%,0%,62%,88%,0%,0%,"Test B disease control rating [1, 5]: 0%; Test K disease control rating [3, 5]: 0%"
CC(=O)N=c1c(C#N)nc(C)c(-c2ccccc2)n1CC(C)C [compound 431],,,,,,,,,,,,16%,0%,46%,0%,0%,28%,88%,0%,37%,"Test B disease control rating [1, 5]: 0%; Test K disease control rating [3, 5]: 32%"
